Laboratory results as given in PubChem BioAssay (NCI).
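Following 48 hours of exposure in 96-well plates, responses at five concentrations were used to interpolate endpoints linearly. GI50: concentration for 50% inhibition of growth. At the TGI there is no net growth.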

Legend:
Experiment in all cases: NCI anticancer screen, dose series, 48 h
HCC-2998 colon = test system: HCC-2998 colon
HOP-62 NSCLC = test system: HOP-62 NSCLC
HT29 colon = test system: HT29 colon
MCF7 breast = test system: MCF7 breast
MOLT-4 leukemia = test system: MOLT-4 leukemia
PC-3 prostate = test system: PC-3 prostate
SK-MEL-28 melanoma = test system: SK-MEL-28 melanoma
SK-MEL-5 melanoma = test system: SK-MEL-5 melanoma
T-47D breast = test system: T-47D breast
U251 CNS = test system: U251 CNS

N#Cc1c(NCc2ccccc2)nc(NCc2ccccc2)c(C#N)c1-c1ccc(O)cc1
GI50 (HCC-2998 colon): 39.5 µM
TGI (HCC-2998 colon): > 100 µM
GI50 (HOP-62 NSCLC): 17.3 µM
TGI (HOP-62 NSCLC): 93 µM
GI50 (HT29 colon): 60.2 µM
TGI (HT29 colon): > 100 µM
GI50 (MCF7 breast): 39.7 µM
TGI (MCF7 breast): > 100 µM
GI50 (MOLT-4 leukemia): 20.4 µM
TGI (MOLT-4 leukemia): > 100 µM
GI50 (PC-3 prostate): 25.6 µM
TGI (PC-3 prostate): > 100 µM
GI50 (SK-MEL-28 melanoma): 66.7 µM
TGI (SK-MEL-28 melanoma): > 100 µM
GI50 (SK-MEL-5 melanoma): 15.3 µM
TGI (SK-MEL-5 melanoma): 34.3 µM
GI50 (T-47D breast): 23.8 µM
TGI (T-47D breast): > 100 µM
GI50 (U251 CNS): 19.2 µM
TGI (U251 CNS): 54.5 µM

O=C(Nc1ccc(Cc2ccccc2)cc1)Nc1nn(C(=O)Nc2ccc(Cc3ccccc3)cc2)c2ccccc12
GI50 (HCC-2998 colon): > 100 µM
TGI (HCC-2998 colon): > 100 µM
GI50 (HOP-62 NSCLC): 59.7 µM
TGI (HOP-62 NSCLC): > 100 µM
GI50 (HT29 colon): > 100 µM
TGI (HT29 colon): > 100 µM
GI50 (MCF7 breast): > 100 µM
TGI (MCF7 breast): > 100 µM
GI50 (MOLT-4 leukemia): 63.2 µM
TGI (MOLT-4 leukemia): > 100 µM
GI50 (PC-3 prostate): > 100 µM
TGI (PC-3 prostate): > 100 µM
GI50 (SK-MEL-28 melanoma): > 100 µM
TGI (SK-MEL-28 melanoma): > 100 µM
GI50 (SK-MEL-5 melanoma): > 100 µM
TGI (SK-MEL-5 melanoma): > 100 µM
GI50 (T-47D breast): > 100 µM
TGI (T-47D breast): > 100 µM
GI50 (U251 CNS): 70.2 µM
TGI (U251 CNS): > 100 µM

CCCCC(CCCCCC(CCCC)NCc1ccc2c(c1)OCO2)NCc1ccc2c(c1)OCO2 (stereo not given)
GI50 (HCC-2998 colon): 0.178 µM
TGI (HCC-2998 colon): 0.322 µM
GI50 (HOP-62 NSCLC): 0.836 µM
TGI (HOP-62 NSCLC): 2.13 µM
GI50 (HT29 colon): 0.262 µM
TGI (HT29 colon): 0.687 µM
GI50 (MCF7 breast): 0.273 µM
TGI (MCF7 breast): 0.744 µM
GI50 (MOLT-4 leukemia): 0.262 µM
TGI (MOLT-4 leukemia): 0.653 µM
GI50 (PC-3 prostate): 1.01 µM
TGI (PC-3 prostate): 2.53 µM
GI50 (SK-MEL-28 melanoma): 0.188 µM
TGI (SK-MEL-28 melanoma): 0.337 µM
GI50 (SK-MEL-5 melanoma): 0.758 µM
TGI (SK-MEL-5 melanoma): 2 µM
GI50 (T-47D breast): 0.315 µM
TGI (T-47D breast): 0.933 µM
GI50 (U251 CNS): 0.207 µM
TGI (U251 CNS): 0.438 µM

COc1cc2c3cc1Oc1c(OC)c(OC)cc4c1C(=NCC4)Cc1ccc(cc1)Oc1cc(ccc1O)C[C@H]3N(C)CC2
TGI (HCC-2998 colon): 26.1 µM
TGI (HOP-62 NSCLC): 44.7 µM
TGI (HT29 colon): 23.3 µM
TGI (MCF7 breast): 70 µM
TGI (MOLT-4 leukemia): 66.2 µM
TGI (PC-3 prostate): 42.5 µM
TGI (SK-MEL-28 melanoma): 30.3 µM
TGI (SK-MEL-5 melanoma): 24.6 µM
TGI (T-47D breast): 40.4 µM
TGI (U251 CNS): 45.2 µM

COC(=O)c1ccc2c(c1)C(=O)c1c-2n(CCCCl)c(=O)c2cc([N+](=O)[O-])ccc12
GI50 (HCC-2998 colon): > 100 µM
TGI (HCC-2998 colon): > 100 µM
GI50 (HOP-62 NSCLC): 43.3 µM
TGI (HOP-62 NSCLC): > 100 µM
GI50 (HT29 colon): 76.8 µM
TGI (HT29 colon): > 100 µM
GI50 (MCF7 breast): 52 µM
TGI (MCF7 breast): > 100 µM
GI50 (MOLT-4 leukemia): 26 µM
TGI (MOLT-4 leukemia): > 100 µM
GI50 (PC-3 prostate): > 100 µM
TGI (PC-3 prostate): > 100 µM
GI50 (SK-MEL-28 melanoma): > 100 µM
TGI (SK-MEL-28 melanoma): > 100 µM
GI50 (SK-MEL-5 melanoma): 85.7 µM
TGI (SK-MEL-5 melanoma): > 100 µM
GI50 (T-47D breast): 92 µM
TGI (T-47D breast): > 100 µM
GI50 (U251 CNS): 53.1 µM
TGI (U251 CNS): > 100 µM

CCCc1n(Cc2ccc3ccccc3c2)cc[n+]1Cc1ccc2ccccc2c1
GI50 (HCC-2998 colon): 0.716 µM
TGI (HCC-2998 colon): 2.07 µM
GI50 (HOP-62 NSCLC): 1.26 µM
TGI (HOP-62 NSCLC): 2.8 µM
GI50 (HT29 colon): 0.513 µM
TGI (HT29 colon): 1.89 µM
GI50 (MCF7 breast): 1.11 µM
TGI (MCF7 breast): 2.77 µM
GI50 (MOLT-4 leukemia): 1.46 µM
TGI (MOLT-4 leukemia): 4.07 µM
GI50 (PC-3 prostate): 1.17 µM
TGI (PC-3 prostate): 3.49 µM
GI50 (SK-MEL-28 melanoma): 1.06 µM
TGI (SK-MEL-28 melanoma): 2.52 µM
GI50 (SK-MEL-5 melanoma): 0.485 µM
TGI (SK-MEL-5 melanoma): 1.62 µM
GI50 (T-47D breast): 0.377 µM
TGI (T-47D breast): 3.17 µM
GI50 (U251 CNS): 0.765 µM
TGI (U251 CNS): 2.11 µM
